“And” between values parts separate entries of the source, which are not always exact repeats. Equal entries are not always repeated. ± gives the uncertainty stated by the source.
Test: xn = mol fraction of the nth substance listed

O=CN1CCOCC1 + Cc1ccccc1C
viscosity [mPa·s]
Details	298.15 K	303.15 K	313.15 K	323.15 K
101 kPa, x2 = 0.1	5.936 ± 0.12	5.18 ± 0.11	4.063 ± 0.09	3.294 ± 0.074
101 kPa, x2 = 0.2	4.582 ± 0.1	4.054 ± 0.09	3.243 ± 0.073	2.671 ± 0.06
101 kPa, x2 = 0.3	3.602 ± 0.08	3.231 ± 0.072	2.627 ± 0.06	2.194 ± 0.05
101 kPa, x2 = 0.4	2.87 ± 0.065	2.584 ± 0.059	2.142 ± 0.049	1.8 ± 0.042
101 kPa, x2 = 0.5	2.233 ± 0.051	2.034 ± 0.047	1.71 ± 0.04	1.467 ± 0.035
101 kPa, x2 = 0.6	1.744 ± 0.041	1.583 ± 0.037	1.347 ± 0.032	1.161 ± 0.028
101 kPa, x2 = 0.7	1.385 ± 0.033	1.271 ± 0.031	1.08 ± 0.026	0.9316 ± 0.023
101 kPa, x2 = 0.8	1.122 ± 0.027	1.034 ± 0.025	0.8894 ± 0.022	0.7789 ± 0.02
101 kPa, x2 = 0.9	0.9104 ± 0.023	0.8483 ± 0.022	0.7328 ± 0.019	0.6556 ± 0.017
101.3 kPa, x2 = 0.05737	6.316 ± 0.045	–	–	–
101.3 kPa, x2 = 0.1297	4.989 ± 0.037	–	–	–
101.3 kPa, x2 = 0.2312	3.617 ± 0.027	–	–	–
101.3 kPa, x2 = 0.5161	1.652 ± 0.013	–	–	–
101.3 kPa, x2 = 0.5998	1.343 ± 0.011	–	–	–
101.3 kPa, x2 = 0.6877	1.088 ± 0.009	–	–	–
101.3 kPa, x2 = 0.7767	0.908 ± 0.008	–	–	–
101.3 kPa, x2 = 0.9523	0.635 ± 0.006	–	–	–

S=C=S + ClC(Cl)(Cl)Cl
101 kPa
Details	viscosity [mPa·s]
293.15 K, x1 = 0.223	0.74 ± 0.02
293.15 K, x1 = 0.526	0.52 ± 0.01
293.15 K, x1 = 0.628	0.47 ± 0.01
293.15 K, x1 = 0.718	0.43 ± 0.01
293.15 K, x1 = 0.794	0.41 ± 0.01
293.15 K, x1 = 0.85	0.39 ± 0.01
293.15 K, x1 = 0.914	0.38 ± 0.01
298.15 K, x1 = 0.1	0.7919 ± 0.01
298.15 K, x1 = 0.2	0.7079 ± 0.009
298.15 K, x1 = 0.3	0.6441 ± 0.0082
298.15 K, x1 = 0.4	0.591 ± 0.0075
298.15 K, x1 = 0.5	0.5423 ± 0.0069
298.15 K, x1 = 0.6	0.4948 ± 0.0064
298.15 K, x1 = 0.7	0.4484 ± 0.0058
298.15 K, x1 = 0.8	0.4061 ± 0.0053
298.15 K, x1 = 0.9	0.3741 ± 0.0049

O=CN1CCOCC1 + Clc1ccccc1
viscosity [mPa·s], 101 kPa
Details	x1 = 0.1017	x1 = 0.203	x1 = 0.3039	x1 = 0.4045	x1 = 0.5046	x1 = 0.6044	x1 = 0.7039	x1 = 0.8029	x1 = 0.9017
303.15 K	0.844 ± 0.028	1.034 ± 0.033	1.274 ± 0.04	1.58 ± 0.048	1.966 ± 0.059	2.471 ± 0.073	3.125 ± 0.091	3.981 ± 0.12	5.096 ± 0.14
308.15 K	0.801 ± 0.026	0.973 ± 0.031	1.186 ± 0.037	1.455 ± 0.045	1.793 ± 0.054	2.233 ± 0.066	2.8 ± 0.082	3.529 ± 0.1	4.465 ± 0.13
313.15 K	0.753 ± 0.025	0.911 ± 0.029	1.105 ± 0.035	1.351 ± 0.042	1.656 ± 0.05	2.05 ± 0.061	2.56 ± 0.075	3.21 ± 0.093	4.04 ± 0.12

FC(F)C(F)(F)F + FCF
viscosity [mPa·s], 101 kPa
Details	x1 = 0.247	x1 = 0.49	x1 = 0.744
298.15 K	0.1177 ± 0.0027	0.12 ± 0.0028	0.1269 ± 0.0029
313.15 K	–	–	0.1021 ± 0.0024

C=CCN=C=S + NCCN
313.15 K, 100 kPa
Details	viscosity [mPa·s]
x1 = 0.15	2.956 ± 0.025
x1 = 0.2794	6.678 ± 0.091
x1 = 0.4515	71.46 ± 1.7
x1 = 0.4948	155.4 ± 7.1
x1 = 0.5496	648.5 ± 58
x1 = 0.5994	2470 ± 440
x1 = 0.667	61100
x1 = 0.7502	281.4 ± 82
x1 = 0.851	55.46 ± 1.1

O=C[C@H](O)[C@@H](O)[C@H](O)[C@H](O)CO + O
Details	viscosity
293.15 K, 101 kPa, x1 = 0.002	1.043 ± 0.022 mPa·s
293.15 K, 101 kPa, x1 = 0.0026	1.079 ± 0.011 mPa·s
293.15 K, 101 kPa, x1 = 0.005	1.13 ± 0.024 mPa·s
293.15 K, 101 kPa, x1 = 0.011	1.24 ± 0.08 mPa·s and 1.34 ± 0.1 mPa·s
293.15 K, 101 kPa, x1 = 0.0244	1.95 ± 0.12 mPa·s
293.15 K, 101 kPa, x1 = 0.0411	3.01 ± 0.18 mPa·s
293.15 K, 101 kPa, x1 = 0.0625	5.4 ± 0.33 mPa·s
293.15 K, 101.3 kPa, x1 = 0.001	1.021 ± 0.022 mPa·s
298.15 K, 100 kPa, x1 = 0.0009	1.019 ± 0.0084 mPa·s
298.15 K, 101 kPa, x1 = 0.0002	0.9013 ± 0.09 mPa·s
298.15 K, 101 kPa, x1 = 0.0005	0.9169 ± 0.092 mPa·s
298.15 K, 101 kPa, x1 = 0.001	0.9634 ± 0.097 mPa·s
298.15 K, 101 kPa, x1 = 0.0018	0.9874 ± 0.099 mPa·s
298.15 K, 101 kPa, x1 = 0.002	0.9826 ± 0.098 mPa·s
298.15 K, 101 kPa, x1 = 0.00413	0.9934 ± 0.025 mPa·s
298.15 K, 101 kPa, x1 = 0.005	1.015 ± 0.021 mPa·s
298.15 K, 101 kPa, x1 = 0.00623	1.03 ± 0.026 mPa·s
298.15 K, 101 kPa, x1 = 0.011	1.15 ± 0.08 mPa·s
298.15 K, 101 kPa, x1 = 0.02	1.42 ± 0.013 mPa·s
298.15 K, 101 kPa, x1 = 0.0244	1.68 ± 0.1 mPa·s
298.15 K, 101 kPa, x1 = 0.0411	2.48 ± 0.15 mPa·s
298.15 K, 101 kPa, x1 = 0.0625	4.48 ± 0.27 mPa·s
298.15 K, 101 kPa, x1 = 0.0909	8.75 ± 0.53 mPa·s and 12.75 ± 0.77 mPa·s
303.15 K, 100 kPa, x1 = 0.0009	0.9332 ± 0.0081 mPa·s
303.15 K, 101 kPa, x1 = 0.002	0.8392 ± 0.017 mPa·s
303.15 K, 101 kPa, x1 = 0.004	0.8723 ± 0.018 mPa·s
303.15 K, 101 kPa, x1 = 0.005	0.9084 ± 0.019 mPa·s
303.15 K, 101.3 kPa, x1 = 0.001	0.814 ± 0.018 mPa·s
308.15 K, 100 kPa, x1 = 0.0009	0.8522 ± 0.0078 mPa·s
308.15 K, 101 kPa, x1 = 0.00209	0.7871 ± 0.02 mPa·s
308.15 K, 101 kPa, x1 = 0.004	0.7909 ± 0.017 mPa·s
308.15 K, 101 kPa, x1 = 0.00413	0.8216 ± 0.021 mPa·s
308.15 K, 101 kPa, x1 = 0.005	0.8313 ± 0.017 mPa·s
308.15 K, 101 kPa, x1 = 0.008982	0.911 ± 0.019 mPa·s
308.15 K, 101 kPa, x1 = 0.011	0.98 ± 0.06 mPa·s and 1.05 ± 0.07 mPa·s
308.15 K, 101 kPa, x1 = 0.01441	1.037 ± 0.022 mPa·s
308.15 K, 101 kPa, x1 = 0.0179	1.134 ± 0.024 mPa·s
308.15 K, 101 kPa, x1 = 0.02	1.133 ± 0.0097 mPa·s and 1.086 ± 0.11 mPa·s
308.15 K, 101 kPa, x1 = 0.02311	1.278 ± 0.028 mPa·s
308.15 K, 101 kPa, x1 = 0.0244	1.34 ± 0.08 mPa·s
308.15 K, 101 kPa, x1 = 0.02991	1.442 ± 0.032 mPa·s
308.15 K, 101 kPa, x1 = 0.03509	1.711 ± 0.038 mPa·s
308.15 K, 101 kPa, x1 = 0.0411	1.94 ± 0.12 mPa·s
308.15 K, 101 kPa, x1 = 0.05203	2.579 ± 0.059 mPa·s
308.15 K, 101 kPa, x1 = 0.0591	3.084 ± 0.071 mPa·s
308.15 K, 101 kPa, x1 = 0.0625	3.31 ± 0.2 mPa·s
308.15 K, 101 kPa, x1 = 0.0909	6.58 ± 0.4 mPa·s and 9 ± 0.55 mPa·s
313.15 K, 100 kPa, x1 = 0.0009	0.7853 ± 0.0076 mPa·s
313.15 K, 101 kPa, x1 = 0.002	0.6943 ± 0.015 mPa·s
313.15 K, 101 kPa, x1 = 0.004	0.7341 ± 0.015 mPa·s
313.15 K, 101 kPa, x1 = 0.005	0.7858 ± 0.016 mPa·s
313.15 K, 101 kPa, x1 = 0.011	0.81 ± 0.05 mPa·s and 0.97 ± 0.06 mPa·s
313.15 K, 101 kPa, x1 = 0.02	1.022 ± 0.0089 mPa·s and 0.9825 ± 0.098 mPa·s
313.15 K, 101 kPa, x1 = 0.0244	1.19 ± 0.07 mPa·s
313.15 K, 101 kPa, x1 = 0.0411	1.69 ± 0.1 mPa·s
313.15 K, 101 kPa, x1 = 0.0625	2.96 ± 0.18 mPa·s
313.15 K, 101 kPa, x1 = 0.0909	4.88 ± 0.3 mPa·s and 5.67 ± 0.35 mPa·s
313.15 K, 101 kPa, x1 = 0.13	13.08 ± 0.79 mPa·s and 11.8 ± 3.1 mPa·s
313.15 K, 101.3 kPa, x1 = 0.001	0.671 ± 0.014 mPa·s
318.15 K, 101 kPa, x1 = 0.008982	0.756 ± 0.016 mPa·s
318.15 K, 101 kPa, x1 = 0.011	0.71 ± 0.04 mPa·s and 0.85 ± 0.05 mPa·s
318.15 K, 101 kPa, x1 = 0.01441	0.861 ± 0.018 mPa·s
318.15 K, 101 kPa, x1 = 0.0179	0.941 ± 0.02 mPa·s
318.15 K, 101 kPa, x1 = 0.02	0.9234 ± 0.0081 mPa·s and 0.8774 ± 0.088 mPa·s
318.15 K, 101 kPa, x1 = 0.02311	1.061 ± 0.023 mPa·s
318.15 K, 101 kPa, x1 = 0.0244	1.05 ± 0.06 mPa·s
318.15 K, 101 kPa, x1 = 0.02991	1.197 ± 0.026 mPa·s
318.15 K, 101 kPa, x1 = 0.03509	1.42 ± 0.032 mPa·s
318.15 K, 101 kPa, x1 = 0.0411	1.43 ± 0.09 mPa·s
318.15 K, 101 kPa, x1 = 0.05203	2.141 ± 0.049 mPa·s
318.15 K, 101 kPa, x1 = 0.0591	2.561 ± 0.06 mPa·s
318.15 K, 101 kPa, x1 = 0.0625	2.47 ± 0.15 mPa·s
318.15 K, 101 kPa, x1 = 0.0909	3.91 ± 0.24 mPa·s and 4.65 ± 0.28 mPa·s
318.15 K, 101 kPa, x1 = 0.13	10.56 ± 0.64 mPa·s and 8 ± 1.9 mPa·s
323.15 K, 101 kPa, x1 = 0.011	0.72 ± 0.04 mPa·s and 0.78 ± 0.05 mPa·s
323.15 K, 101 kPa, x1 = 0.02	0.8435 ± 0.0075 mPa·s and 0.7914 ± 0.079 mPa·s
323.15 K, 101 kPa, x1 = 0.0244	0.97 ± 0.06 mPa·s
323.15 K, 101 kPa, x1 = 0.0411	1.29 ± 0.08 mPa·s
323.15 K, 101 kPa, x1 = 0.0625	2.19 ± 0.13 mPa·s
323.15 K, 101 kPa, x1 = 0.0909	3.68 ± 0.22 mPa·s and 4.56 ± 0.28 mPa·s
323.15 K, 101 kPa, x1 = 0.13	8.63 ± 0.52 mPa·s and 7.5 ± 1.3 mPa·s
